Consider one compound from patent publication US20080027088A1, “Imidazole-Based Hmg-Coa Reductase Inhibitors” (Warner-Lambert Company, LLC, priority 2004, published 2008).

Molecules are shown by their SMILES. Marks after values point to notes of the source that are not given here.

One experiment relates to LCB1 and LCB2 mRNA. Briefly: SPT gene expression (LCB1, LCB2 mRNA) in liver by RT-PCR. The experiment is classed as in vivo. Particulars: 0.3 mg/kg/day diet admix, 12 weeks, Western diet-fed ApoE KO mice. Here is the method:
SPT expression and activity—Total RNA was isolated from liver and aorta using Trizol (Invitrogen, Calif.). LCB1 and LCB2 mRNA levels were measured by real-time (RT) polymerase chain reaction (PCR) on ABI Prism 7900HT Sequence Detection System (Applied Biosystems, Foster City, Calif.). The following primers and probe sets were utilized: LCB1, forward primer, 5′-CCGCTCCTTCGTGGTTGA-3′: reverse primer, 5′-[…]-3′: probe, 5′FAM-[…]-3′; LCB2, forward primer, 5′-[…]-3′, reverse primer, 5′-CCTCAGGATCCAGGCCM-3′, probe, 5′FAM-[…]-3′. The optimum number of cycles was set for each gene product with uniform amplification. Each mRNA level was expressed as a ratio to 18s ribosomal RND or as a ratio to GAPDH RNA.
FIGS. 1-A, 1-B, 1-C, 1-D and 1-E. SPT gene expression and enzyme activity. Mice were treated with 0.3 mg/kg/day myriocin for 12 weeks by mixing with Western diet chow. Liver was isolated and total mRNA and cell-free homogenate were prepared. SPT mRNA expression was quantified by quantitative RT-PCR. Expression was described as a ratio of LCB1 (A) or LCB2 (B) mRNA to 18s RNA or to rodent GAPDH RNA (n=5, P>0.05). SPT activity of cell-free homogenate (C) was measured with ^14C-labeled Serine and palmitoyl-coenzyme A as substrates and analyzed by TLC. Relative amounts of 3-ketosphinganine were determined by densitometry scanning. The values reported are mean±SEM (n=3, *P<0.05).

For a further experiment, the system named is ApoE knockout mice. As to the kind of experiment: Plasma sphingomyelin and phosphatidylcholine by HPLC, 4 weeks (Table 2). It is filed as in vivo. Particulars: for PC in plasma / SM in plasma / SM; PC molar ratio: diet admix 4 weeks, n = 10. Here is the method:
Animal experiments—Male C57BI/6J and ApoE KO mice on C57BI/6J background were obtained from the Jackson Laboratory (Bar Harbor, Me.) or Taconic (Germantown, N.Y.) (Plaque formation in ApoE KO mice is lipid-driven (A. S. Plump et al., Cell. 1992;71 (2):343-53)). Myriocin was mixed with Western diet containing 0.21% cholesterol and 21% fat. 8-12-week-old mice received 0.3 mg myriocin/kg/day for 12 weeks (Table 1). […] Control groups consisted of ApoE KO mice fed normal chow or Western diet without myriocin, and normal chow-fed C57BI/6J mice. Body weight and chow feeding was measured every week to examine the food consumption. For the femoral artery cuff model, 8-10 week-old male ApoE KO mice were anethetized and the right femoral artery was dissected from its surroundings. A nonconstrictive polyethylene cuff (Portex, 0.40-mm inner diameter, 0.80-mm outer diameter, and 1.5-mm length) was placed looselyaround the right femoral artery.
The liquid chromatography system was composed of twin Shimadzu (Columbia, Md.) LC-10ADvp HPLC pumps with a SCL-10Avp controller (flow rate 0.2 mL/minute), and a LEAP Technologies (Carrboro, N.C.) CTC PAL autosampler. For the quantitative method, the analytical column was a Phenomenex (Torrance, Calif.) Polar-RP (2.0×150 mm, 4 μm) with a MetaChem (Torrance, Calif.) MetaGuard Polaris C8 2.0 mm direct connect (5 μm) guard column. Mobile phase A consisted of water/acetonitrile/formic acid (60/40/0.1) and mobile phase B was propanol. The HPLC pumps were programmed with a gradient for each injection to deliver 98% mobile phase A (0-1 minute), 30% mobile phase A (1-2 minutes), 30% mobile phase A (2-4 minutes), and 98% mobile phase A (4-4.5 minutes). A sample volume of 2 μL was injected into the LC/MS/MS system. Final chromatographic retention times for sphingomyelin, sphinganine, psychosine (internal standard) and ceramide were 4.84 minutes, 5.43 minutes, 4.92 minutes and 5.31 , minutes, respectively. Lipid extracts were analyzed by HPLC and evaporative light scattering detector to determine plasma sphingomyelin and phosphatidylcholine (PC) levels (R. Homan and M.K. Anderson, J. Chromatogr. B. Biomed. Sci. Appl. 1998;708:21-6).
To investigate whether myriocin was effective in lowering sphingomyelin biosynthesis, various concentrations of myriocin were administered to ApoE KO mice for 4 weeks and plasma SM levels were examined. […] At the highest dose of myriocin (1 mg/kg/day), plasma sphingomyelin levels were reduced by 70% when compared with no-myriocin control. Thus, myriocin in a diet admix was effective in inhibiting sphingomyelin biosynthesis and lowering plasma sphingomyelin levels. Since SM levels relative to phospholipids has been regarded as a risk factor for coronary artery disease, plasma PC levels were determined by HPLC analysis. Although there were significant changes in plasma SM levels, plasma PC levels were not changed to the same extent by myriocin. Consequently, SM/PC molar ratio was lowered by myriocin in a dose-dependent manner (Table 2).

Consider `CCCCCCC(=O)CCCCCC/C=C/C[C@@H](O)[C@H](O)[C@@](N)(CO)C(=O)O` [myriocin], for which the “effect on expression of LCB1 and LCB2 mRNA in the liver” value in the experiment on LCB1 and LCB2 mRNA is recorded as “no effect”. For the same compound, in the experiment with ApoE knockout mice (1 mg/kg/day, 4 weeks, vs no-myriocin control), the “plasma sphingomyelin levels reduced (HPLC)” value was found to be 70%. Further, in the experiment on ApoE knockout mice (WD + 0.1 mg myr), the PC in plasma stood at 2.763 ± 0.195 nmol/mL, the SM in plasma is 0.379 ± 0.035 nmol/mL and the “SM; PC molar ratio” value is given as 0.137 ± 0.005^b. In addition, in the experiment on ApoE knockout mice (WD + 0.3 mg myr), the PC in plasma turned out to be 1.999 ± 0.085 nmol/mL, the SM in plasma turned out to be 0.243 ± 0.032 nmol/mL and the “SM; PC molar ratio” value is listed as 0.122 ± 0.013^b. In addition, in the experiment with ApoE knockout mice (WD + 1 mg myr), the PC in plasma came to 2.044 ± 0.146 nmol/mL, the SM in plasma turned out to be 0.175 ± 0.013 nmol/mL and the “SM; PC molar ratio” value was 0.086 ± 0.008^b.
